Data taken from PubChem BioAssay (NCI).
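How tested: cells in 96-well plates exposed to compound for 48 hours at five concentrations. TGI: concentration producing complete growth inhibition.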

What was measured:
Assay in all cases: NCI-60 cell line screen, 48 h
HT29 colon = test system: HT29 colon
HOP-92 NSCLC = test system: HOP-92 NSCLC
UACC-62 melanoma = test system: UACC-62 melanoma
HL-60(TB) leukemia = test system: HL-60(TB) leukemia
SNB-75 CNS = test system: SNB-75 CNS
UACC-257 melanoma = test system: UACC-257 melanoma
HOP-62 NSCLC = test system: HOP-62 NSCLC
XF 498 CNS = test system: XF 498 CNS
U251 CNS = test system: U251 CNS
IGROV1 ovarian = test system: IGROV1 ovarian
OVCAR-5 ovarian = test system: OVCAR-5 ovarian
SN12C renal = test system: SN12C renal
RPMI-8226 leukemia = test system: RPMI-8226 leukemia
UO-31 renal = test system: UO-31 renal
CCRF-CEM leukemia = test system: CCRF-CEM leukemia
NCI-H226 lung = test system: NCI-H226 lung
SF-295 CNS = test system: SF-295 CNS
RXF-631 renal = test system: RXF-631 renal
HOP-18 NSCLC = test system: HOP-18 NSCLC
OVCAR-3 ovarian = test system: OVCAR-3 ovarian
KM12 colon = test system: KM12 colon
SNB-19 CNS = test system: SNB-19 CNS
M19-MEL melanoma = test system: M19-MEL melanoma
EKVX NSCLC = test system: EKVX NSCLC
DLD-1 colon = test system: DLD-1 colon
LXFL 529 NSCLC = test system: LXFL 529 NSCLC
TK-10 renal = test system: TK-10 renal
SK-OV-3 ovarian = test system: SK-OV-3 ovarian
K-562 leukemia = test system: K-562 leukemia
NCI-H460 lung = test system: NCI-H460 lung
NCI-H522 lung = test system: NCI-H522 lung
786-0 renal = test system: 786-0 renal
SR leukemia = test system: SR leukemia
ACHN renal = test system: ACHN renal
KM20L2 colon = test system: KM20L2 colon
CAKI-1 renal = test system: CAKI-1 renal
A549 NSCLC = test system: A549 NSCLC
M14 melanoma = test system: M14 melanoma
A498 renal = test system: A498 renal
HCT-116 colon = test system: HCT-116 colon
OVCAR-4 ovarian = test system: OVCAR-4 ovarian
SNB-78 CNS = test system: SNB-78 CNS
RXF 393 renal = test system: RXF 393 renal
MALME-3M melanoma = test system: MALME-3M melanoma
NCI-H23 lung = test system: NCI-H23 lung
HCT-15 colon = test system: HCT-15 colon
HCC-2998 colon = test system: HCC-2998 colon
SW-620 colon = test system: SW-620 colon
DMS 273 small cell lung = test system: DMS 273 small cell lung
COLO 205 colon = test system: COLO 205 colon
OVCAR-8 ovarian = test system: OVCAR-8 ovarian
DMS 114 small cell lung = test system: DMS 114 small cell lung
MOLT-4 leukemia = test system: MOLT-4 leukemia
SF-268 CNS = test system: SF-268 CNS
LOX IMVI melanoma = test system: LOX IMVI melanoma

COC(=O)C(C(=O)C(=O)NC1=C(Cl)C(=O)c2ccccc2C1=O)c1csc(-n2nc(-c3ccccc3)cc2-c2ccccc2)n1 (stereo not given)
TGI (HT29 colon): > 100 µM | TGI (HOP-92 NSCLC): > 100 µM | TGI (UACC-62 melanoma): > 100 µM | TGI (HL-60(TB) leukemia): > 100 µM | TGI (SNB-75 CNS): 9.4 µM | TGI (UACC-257 melanoma): > 100 µM | TGI (HOP-62 NSCLC): > 100 µM | TGI (XF 498 CNS): > 100 µM | TGI (U251 CNS): > 100 µM | TGI (IGROV1 ovarian): > 100 µM | TGI (OVCAR-5 ovarian): > 100 µM | TGI (SN12C renal): > 100 µM | TGI (RPMI-8226 leukemia): > 100 µM | TGI (UO-31 renal): > 100 µM | TGI (CCRF-CEM leukemia): > 100 µM | TGI (NCI-H226 lung): > 100 µM | TGI (SF-295 CNS): > 100 µM | TGI (RXF-631 renal): > 100 µM | TGI (HOP-18 NSCLC): > 100 µM | TGI (OVCAR-3 ovarian): > 100 µM | TGI (KM12 colon): > 100 µM | TGI (SNB-19 CNS): > 100 µM | TGI (M19-MEL melanoma): > 100 µM | TGI (EKVX NSCLC): > 100 µM | TGI (DLD-1 colon): > 100 µM | TGI (LXFL 529 NSCLC): > 100 µM | TGI (TK-10 renal): > 100 µM | TGI (SK-OV-3 ovarian): > 100 µM | TGI (K-562 leukemia): > 100 µM | TGI (NCI-H460 lung): > 100 µM | TGI (NCI-H522 lung): > 100 µM | TGI (786-0 renal): > 100 µM | TGI (SR leukemia): > 100 µM | TGI (ACHN renal): > 100 µM | TGI (KM20L2 colon): > 100 µM | TGI (CAKI-1 renal): > 100 µM | TGI (A549 NSCLC): > 100 µM | TGI (M14 melanoma): > 100 µM | TGI (A498 renal): > 100 µM | TGI (HCT-116 colon): > 100 µM | TGI (OVCAR-4 ovarian): > 100 µM | TGI (SNB-78 CNS): > 100 µM | TGI (RXF 393 renal): > 100 µM | TGI (MALME-3M melanoma): > 100 µM | TGI (NCI-H23 lung): > 100 µM | TGI (HCT-15 colon): > 100 µM | TGI (HCC-2998 colon): > 100 µM | TGI (SW-620 colon): > 100 µM | TGI (DMS 273 small cell lung): > 100 µM | TGI (COLO 205 colon): > 100 µM | TGI (OVCAR-8 ovarian): > 100 µM | TGI (DMS 114 small cell lung): > 100 µM | TGI (MOLT-4 leukemia): > 100 µM | TGI (SF-268 CNS): > 100 µM | TGI (LOX IMVI melanoma): > 100 µM
